Laboratory results as given in patent US20260284240A1, “RADIOLABELED COMPOUND FOR USE IN A METHOD OF TREATING CARBONIC ANHYDRASE IX POSITIVE DISEASES” (DEBIOPHARM INTERNATIONAL S.A., priority 2023, published 2026).
Read-outs that look alike come from different tables or passages of the source. Starred links: 1 amine or outer side, 2 acyl side, 3 side chain; linkers in the order of their positions; H or OH if unused. Positions of bridges follow the written chain, without caps; N, C: chain ends. Non-standard residues stand in square brackets, D forms with d. Residues, ends and D or L forms follow the SMILES beside them. *: point of attachment. Phe(3-NHCO(CH2)3SO2NH2) = N[C@@H](Cc1cccc(NC(=O)CCCS(N)(=O)=O)c1)C(=O)O; DOTA = O=C(O)CN1CCN(CC(=O)O)CCN(CC(=O)*)CCN(CC(=O)O)CC1; mXylylene = c1cc(C[*:1])cc(C[*:2])c1; X1 = O=C(CN1CCN([*:1])CC1)[*:2]

What was measured:
[1] = tested on: HT-29 tumor; assay: Biodistribution of In-111-labeled compounds by SPECT/CT in HT-29 tumor-bearing mice; type: in vivo, mouse
Protocol: (§1) The effect on tumor uptake of prior injection of gelofusine for kidney protection was investigated in mice bearing the SK-RC-52 tumor. Biodistribution was evaluated using in vivo SPECT/CT imaging. Prior to the in vivo study the compounds (ligands) were initially radiolabeled with In-111 and the stability of radiolabeled compounds was evaluated in buffer at three different timepoints.
(§2) The study was performed in female NMRI nude mice (approximately 6 weeks of age) from Janvier Labs, France, housed up to 5 mice per cage.
(§3) The column was washed with 2 mL water, and then the final product was eluted from the column in EtOH solution (50%) • The sample was formulated in PBS to the final concentration of 150 MBq/mL and 5 nmol/mL.
(§4) SK-RC-52 cells were cultured in RPMI 1640 with GlutaMax-I (Thermo Fisher Scientific #61870044) supplemented with 10% fetal bovine serum+1% penicillin/streptomycin, harvested, washed twice in RPMI 1640 and resuspended at 2×10^7 cells/mL in RPMI 1640. HT-29 cells were cultured in McCoy's 5a Medium Modified (Sigma #M9309). For inoculation of HT-29 cells, cells were harvested, washed twice in PBS and resuspended at 5×10^7 cells/mL in PBS. Cells were kept on ice until inoculation.
(§5) Animals were anaesthetized (isoflurane, 2-4% in ambient air supplemented with 100% O2) prior to tumor inoculation. The tumor cells (100 μL suspension of either SK-RC-52 cells (2×10^6 cells/animal) or HT-29 cells (5×10^6 cells/animal)) were subcutaneously inoculated in the right flank using a 1-mL syringe equipped with a 27G needle. Tumor growth and animal weight were measured twice per week. Tumor size was measured by caliper and the volume was estimated using the following formula: 0.52×(length×width^2). When tumor sizes reached 150-250 mm^3, animals were randomized into groups (n=3) of similar average tumor volume and body weight.
(§6) Animals were injected intravenously with In-111-labeled compounds (single bolus, 22.3-31.2 MBq, ~1 nmol ligand, injection volume: 100 μL) in the lateral tail vein using a 29G syringe.
(§7) CT was performed with helical scan, 300 ms exposure, reconstruction resolution of 250 μm. SPECT was performed with multi-pinhole scan and a 30 s frame time. For the quantification of the radioactivity uptake, regions of interests (ROIs) were drawn over the tumor, kidney, liver, and heart (estimate of blood) identified on the images. Uptake was expressed as percent of injected dose per gram tissue (% ID/g).

[2] = as above; type: in vivo, mouse; conditions: mouse
Protocol: as §1, §2, §3, §4, §5, §6, §7

[3] = Dose range finding toxicity study by i.v. bolus in male beagle dogs; type: in vivo, dog; conditions: i.v. bolus up to 800 μg/kg
Protocol: The following parameters and endpoints were evaluated: mortality, clinical observations, body weights, food consumption, local reactions, clinical pathology parameters (hematology, coagulation, and clinical chemistry), organ weights, and macroscopic examinations. Both animals were sampled for toxicokinetics (TK) on each dosing occasion (i.e., on day 1, day 5, day 9 and day 13) at: pre-dose, 15 min, 30 min, 1 h, 6 h and 24 h. Blood samples were collected in K2EDTA tubes. Plasma was prepared by centrifugation (2500 g for 10 minutes, +4° C.) within 1 hour after collection, and then frozen within 1 hour after centrifugation and stored at −80° C. […] Chromatographic separation was achieved using a Waters Acquity UPLC system with a Waters Acquity HSS T3 C18 2.1×50 mm, 1.8 μm column. Chromatography was conducted at 50° C. at a flow rate of 0.7 mL/min using a mobile phase consisting of A: acetonitrile, and B: 1% formic acid in water, according to the following linear gradient: 0 to 0.1 min: 90% B; 0.1 to 4.1 min: from 90% B to 74% B; 4.1 to 4.2 min: from 74% B to 5% B; 4.2 to 4.6 min: 5% B; 4.6 to 4.7 min: from 5% B to 90% B; 4.7-5.1 min; 90% B. Detection was performed using a Sciex AP16600 TOF mass spectrometer. Toxicokinetic parameters were estimated from concentration-time data using Phoenix pharmacokinetic software (version 6.4, Certara L.P.). […]

[4] = target: T1, human CAIX (Homo sapiens, UniProt Q16790); assay: Surface Plasmon Resonance (SPR) binding to captured human CAIX (Biacore T200); conditions: 25° C.
T1 construct: purchased Sino Biological 10107-H02H
Protocol: Surface Plasmon Resonance (SPR) studies were performed on a Biacore™ T200 using a ligand capture approach. Basically, anti-human Fc antibodies were immobilized on the surface of a sensor chip and CAIX was captured on the functionalized surface via its Fc Tag. Then, each compound was injected at increasing concentrations on the captured CAIX in order to measure the in real-time interaction of the compound to its target (i.e., the captured CAIX). The in real-time monitoring of the association and dissociation of the interaction gives access to the interaction kinetics parameters (i.e., the association and dissociation rate constants and the resulting affinity constants). […]
• For each measurement, the raw surface plasmon resonance response (RU) was plotted against time (s) as a sensorgram using the Biacore™ T200 Control Software. • Raw data were corrected by double referencing with subtraction of the signal of both the reference flow-cell and the blank cycle. • The association and dissociation rate constants (ka and kd, respectively), as well as the dissociation constant KD and dissociation half-life t½ were determined from the corrected sensorgrams by fitting the data to a 1:1 Langmuir binding model with the Biacore™ T200 evaluation software.

[5] = Cardiovascular and respiratory safety pharmacology (jacketed external telemetry) in dogs; type: in vivo; conditions: dog, any dose or timepoint
From the text: The test item treatment led to unaffected body weights, weight gains, and food intake. Likewise, no treatment-related abnormalities were reported during ophthalmic examinations, urinalysis, blood biochemistry, coagulation, and hematology investigations. There were no related organ weight changes and macroscopic and microscopic observations at early and late necropsies. Jacketed external telemetry was used to evaluate the potential cardiovascular and respiratory effects in the Subset B. Cardiorespiratory telemetry recordings were performed during the pre-test, Day 1 and 14. […] Arterial blood pressure parameters (systolic and diastolic blood pressure and mean arterial pressure) were measured continuously during consecutive 30-minute periods at pre-dose and for up to 6 h after dosing and over consecutive 60-minute periods up to 24 h after dosing. The respiratory rate was monitored on the pre-test, Day 1 and Day 14 at 0.5, 1, 2, 3, 4, 6, 8, 12, 16, 20, and 24 h. […] The potential effects on central nervous system parameters were evaluated under restrained and non-restrained conditions using a FOB in Subset A. Neurologic, autonomic, and behavioral investigations were performed in the pre-test, pre-dose, and 1 hour after dosing on Day 1.

## CC(C)C[C@@H]1NC(=O)[C@H](Cc2cccc(NC(=O)CCCS(N)(=O)=O)c2)NC(=O)[C@H](CC(=O)O)NC(=O)[C@H]2CCCN2C(=O)[C@H](CCC(=O)O)NC(=O)[C@@H](NC(=O)[C@H](CCC(N)=O)NC(=O)CN2CCN(C(=O)CN3CCN(CC(=O)O)CCN(CC(=O)O)CCN(CC(=O)O)CC3)CC2)CSCc2cccc(c2)CSC[C@@H](C(N)=O)NC(=O)[C@H](CO)NC(=O)[C@H](Cc2c[nH]c3ccccc23)NC(=O)[C@H]([C@@H](C)O)NC1=O [DPI-4452, DOTA-PPAc-Gln-[Cys(3MeBn)-Glu-pro-Asp-Af3(Cpsu)-Leu-Thr-Trp-Ser-Cys]-NH2] ({DOTA}-[X1]QCE[dP]D[Phe(3-NHCO(CH2)3SO2NH2)]LTWSC-NH2; linker 3-12 via mXylylene)
[1]; HT-29
  % remaining tumor uptake at 24 h p.i.: 65.8 ± 3.8%
  Time to peak uptake in tumor: 2 h
[1]; HT-29 mice
  Blood uptake at 4 h p.i.: 0.04 ± 0.002 % ID/g
  Kidney uptake at 24 h p.i.: 1.41 ± 0.11 % ID/g
  Liver uptake at 4 h p.i.: 0.12 ± 0.005 % ID/g
[2]; ht-29 tumor, HT-29, Mean ± SEM, N=3, read-out: Peak Tumor Uptake
  tissue uptake: 5.21 ± 1.22 %ID/g
[2]; kidney, HT-29 mice, read-out: Peak Kidney uptake
  tissue uptake: 5.37 ± 1.45 %ID/g
[3]
  Tolerability: well tolerated systemically and locally
[4]
  t1/2 (dissociation half-life): 99 min
[5]
  Cardiovascular or respiratory parameters (heart rate, arterial blood pressure, ECG, respiratory rate): no related effect on cardiovascular or respiratory parameters
